Results as given in patent US10159265B2, “Feed composition for reducing ruminant methanogenesis” (priority 2012, dated 2018).
Marks after values point to notes of the source that are not given here.

Assays:
ruminal bacteria = assay: Bacterial DNA concentration by qPCR; format: cell-based, calves; settings: 12 hours of incubation
Procedure: (§1) Rumen cannulated calves which received a mixed ration mainly composed of concentrate (90:10) were used as rumen fluid donor; feed composition is presented in Table 1. The inoculum was collected and filtered through two-layer surgical gauze and kept in thermo pots. Flavonoids (Table 2) plus 600 mg of concentrate (Table 1) and 60 mg of barley straw as the substrate were dosed by triplicate in preheated bottles (39° C.) and maintained under anaerobic conditions. Flavonoids isonaringin, neoeritrocin, poncirin were purchased from INDOFINE Chemical Company, Inc (USA). 10 ml of rumen fluid and 40 ml of incubation medium were added to the bottles (McDougall, El (1948) Studies on ruminant saliva. 1. The composition and output of sheep's saliva. Biochem J. 43(1) 99-109). Once the bottles were filled and the anaerobic condition was applied, the bottles were sealed and the incubation process was started in a hot water bath. Pressure readings were made at 2, 4, 6, 8, 12, 24, 36 and 48 hours. Each sample was incubated in triplicate in two sets or batches.
(§2) After 12 hours of incubation, one bottle (replicate) from each treatment was opened, pH was recorded and the bottle was sampled for volatile fatty acids (Jouany, J. P., 1982 Science des Aliments 2, 131-144), lactate (Taylor, K. A. C. C., 1996. Appl. Biochem. Biotechnol. Enzym. Eng. Biotechnol. 56, 49-58) and ammonia (Chaney, A. L., Marbach, E. P., 1962. Clin. Chem. 8, 130-132) analyses.
(§3) The environmental DNA was extracted using the technique proposed by Yu and Morrison (2004). Quantification of Streptococcus bovis, Megasphaera elsdenii and Selenomonas ruminantium DNA was done by qPCR using specific primers (Tajima, K. et al. 2001. Appl. Environ. Microb. 67, 2766-2774; Ouwerkerk, D., et al. 2002. J. Appl. Microbiol. 92, 753-758). Results were statistically analyzed using the PROC MIXED procedure of SAS statistical package (SAS, 2000, User's guide: Statistics, version 8 editions inst., Inc., Cary, N.C.). The least significant difference was used to compare the means. Differences between means in which P<0.05 were accepted as significant.

Streptococcus bovis = assay: qPCR relative quantification of Streptococcus bovis; format: cell-based; settings: 12 hours of incubation
Procedure: as §1, §2, §3

[1] = tested on: "in vitro" rumen fluid culture; assay: Biogas production in "in vitro" rumen fluid culture (pressure meter); format: cell-based, calves; design: Average biogas production / Cumulative biogas production / Biogas production: unit not given here; settings: Exp 1; for Average biogas production: average over doses and incubation times
Procedure: (§4) Two trials following an identical experimental protocol were designed to study the effect of different pure flavonoids on rumen fermentation using a simulatory “in vitro” system based on the experimental protocol described by Theodorou M K et al. (1994) Animal Feed Science and Technology, 48 (3), p. 185-197; Mauricio, R. M., et al. (1999) Animal Feed Science and Technology 79, 321-330.
Gas production was determined from a semi-automatic pressure meter, the relationship between pressure levels and the produced gas volume was previously calculated.
as §1, with “Pressure readings were made at 2, 4, 6, 8, 12, 24, 36 and 48 hours.” left out

[2] = tested on: methanogenic (archea) populations; assay: Methane production in "in vitro" rumen fluid culture; format: cell-based, calves; design: Average methane production / Accumulated methane production / Methane production / Cumulative methane production: unit not given here; settings: Exp 1
Description: as §4
as §1, with “Pressure readings were made at 2, 4, 6, 8, 12, 24, 36 and 48 hours.” left out
The effects of flavonoids substances on fermentation activity of certain archea populations which are theoretically responsible for the methane production were analyzed.
The experimental design allows determining whether the effect of flavonoids on methane reduction was derived from a general reduction in microbial activity and biogas production or contrarily flavonoid affects specifically on methanogenic (archea) populations. The presence of flavonoids in the culture medium reduced methane contribution in the total biogas production (P<0.05) although, again, the aforementioned impact was heterogeneous.

[3] = tested on: "in vitro" ruminal fluid culture; assay: Lactate concentration in "in vitro" ruminal fluid culture; format: cell-based, calves; settings: 12 hours of incubation
Description: as §4, §1, §2

[4] = tested on: "in vitro" ruminal fluid cultures; assay: Ammonia (N-NH3) concentration in "in vitro" ruminal fluid cultures; format: cell-based, calves; settings: for N-NH3 concentration, average (M): average over incubation times
Description: as §4, §1, §2

Megasphaera elsdenii = assay: qPCR relative quantification of Megasphaera elsdenii; format: cell-based; settings: 12 hours of incubation
Procedure: as §1, §2, §3

[5] = tested on: "in vitro" ruminal fluid cultures; assay: Volatile fatty acid concentration and molar proportions in "in vitro" ruminal fluid cultures; format: cell-based, calves; settings: for % Acetate, molar ratio, average (μ) / % Butyrate, molar ratio, average (μ) / % Propionate, molar ratio, average (M) / VFA concentration, average (μ): average over incubation times
Description: as §4, §1
[…] P., 1982 Science des Aliments 2, 131-144), lactate (Taylor, K. A. C. C., 1996. Appl. Biochem. Biotechnol. Enzym. Eng. Biotechnol. 56, 49-58) and ammonia (Chaney, A. L., Marbach, E. P., 1962. Clin. Chem. 8, 130-132) analyses.

Selenomonas ruminantium = assay: qPCR relative quantification of Selenomonas ruminantium; format: cell-based; settings: 12 hours of incubation
Procedure: as §1, §2, §3

[6] = tested on: "in vitro" ruminal fluid cultures; assay: Ammonia (N-NH3) concentration in "in vitro" ruminal fluid cultures; format: cell-based, calves; settings: 72 h
[7] = average over doses and incubation times

## C[C@@H]1O[C@@H](O[C@H]2[C@H](Oc3cc(O)c4c(c3)O[C@H](c3ccc(O)cc3)CC4=O)O[C@H](CO)[C@@H](O)[C@@H]2O)[C@H](O)[C@H](O)[C@H]1O [Naringin, naringin]
Ruminal bacteria
  Bacteria DNA: 22.15 ^ab μg/ml
Streptococcus bovis
  Relative Quantification 2^(ΔΔCt) S. bovis: 0.48
[1]; 12 h incubation
  Cumulative biogas production: 193.90
[1]; 24 h incubation
  Cumulative biogas production: 236.91
[1]; 48 h incubation
  Cumulative biogas production: 270.98
[1]; 72 h incubation
  Cumulative biogas production: 290.91
[1]
  Average biogas production: 248.17^bc
[1]; listed as naringin
  Average biogas production: did not change
[1]; dose 1, 0.2 g/kg DM
  Biogas production: 251.15
[1]; dose 2, 0.5 g/kg DM
  Biogas production: 245.19
[2]; 12 h
  Accumulated methane production: 23.38
  Proportion of methane in the produced biogas: 12.04
[2]; 24 h
  Accumulated methane production: 29.46
  Proportion of methane in the produced biogas: 14.28
[2]; 48 h
  Accumulated methane production: 34.93
  Proportion of methane in the produced biogas: 16.14
[2]; 72 h
  Accumulated methane production: 38.24
  Proportion of methane in the produced biogas: 16.97
[2]; [7]
  Proportion of methane in the produced biogas: 14.86^b
[2]; average over doses and incubation times, listed as Naringina
  Average methane production: 31.50^b
[2]; average over doses and incubation times, listed as naringin
  Average methane production: not modified
[2]; dose 1, 0.2 g/kg DM
  Methane production: 32.28
  Proportion of methane in the produced biogas: 14.87
[2]; dose 2, 0.5 g/kg DM
  Methane production: 30.73
  Proportion of methane in the produced biogas: 14.85
[3]
  Lactate: 77.8 mg/L
[4]; 0 h (initial constant value)
  N-NH3 concentration: 149.99 mg/L
[4]; 12 h
  N-NH3 concentration: 172.47 mg/L
[4]
  N-NH3 concentration, average (M): 219.57 mg/L
Megasphaera elsdenii
  Relative Quantification 2^(ΔΔCt) M. elsdenii: 1.26 ^c
[5]; 0 h
  % Acetate, molar ratio: 62.51 mol/100 mol
  % Butyrate, molar ratio: 9.07 mol/100 mol
  % Propionate, molar ratio: 20.03 mol/100 mol
  A/P rate (acetate/propionate): 3.12
[5]; 0 h (initial constant value)
  VFA concentration: 13.78 mmol/L
[5]; 12 h
  % Acetate, molar ratio: 53.70 mol/100 mol
  % Butyrate, molar ratio: 10.47 mol/100 mol
  % Propionate, molar ratio: 30.00 mol/100 mol
  A/P rate (acetate/propionate): 1.79
  VFA concentration: 35.23 mmol/L
[5]; 72 h
  % Acetate, molar ratio: 55.34 mol/100 mol
  % Butyrate, molar ratio: 10.33 mol/100 mol
  % Propionate, molar ratio: 26.75 mol/100 mol
  A/P rate (acetate/propionate): 2.07
  VFA concentration: 51.03 mmol/L
[5]
  % Acetate, molar ratio, average (μ): 57.18 mol/100 mol
  % Butyrate, molar ratio, average (μ): 9.96 ^ab mol/100 mol
  % Propionate, molar ratio, average (M): 25.59 ^b mol/100 mol
  VFA concentration, average (μ): 33.35 mmol/L
[5]; listed as naringin
  % Propionate, molar ratio, average (M): improved
Selenomonas ruminantium
  Relative Quantification 2^(ΔΔCt) S. ruminantium: 0.74
[6]
  N-NH3 concentration: 336.25 mg/L

## COc1ccc([C@@H]2CC(=O)c3c(O)cc(O[C@@H]4O[C@H](CO[C@@H]5O[C@@H](C)[C@H](O)[C@@H](O)[C@H]5O)[C@@H](O)[C@H](O)[C@H]4O)cc3O2)cc1O [Hesperidin, hesperidin]
Ruminal bacteria
  Bacteria DNA: 9.18 ^a μg/ml
Streptococcus bovis
  Relative Quantification 2^(ΔΔCt) S. bovis: 0.58
[1]; 12 h incubation
  Cumulative biogas production: 187.19
[1]; 24 h incubation
  Cumulative biogas production: 227.31
[1]; 48 h incubation
  Cumulative biogas production: 261.28
[1]; 72 h incubation
  Cumulative biogas production: 282.84
[1]
  Average biogas production: 239.65^cd
[1]; listed as hesperidin
  Average biogas production: 239.6
[1]; dose 1, 0.2 g/kg DM
  Biogas production: 239.91
[1]; dose 2, 0.5 g/kg DM
  Biogas production: 239.4
[2]; 12 h
  Accumulated methane production: 21.08
  Proportion of methane in the produced biogas: 11.26
[2]; 24 h
  Accumulated methane production: 26.03
  Proportion of methane in the produced biogas: 12.40
[2]; 48 h
  Accumulated methane production: 31.54
  Proportion of methane in the produced biogas: 16.43
[2]; 72 h
  Accumulated methane production: 35.04
  Proportion of methane in the produced biogas: 16.55
[2]; [7]
  Average methane production: 28.42^cd
  Proportion of methane in the produced biogas: 14.16^cd
[2]; average over doses and incubation times, listed as hesperidin
  Average methane production: not modified
[2]; dose 1, 0.2 g/kg DM
  Methane production: 28.11
  Proportion of methane in the produced biogas: 14.05
[2]; dose 2, 0.5 g/kg DM
  Methane production: 28.74
  Proportion of methane in the produced biogas: 14.27
[3]
  Lactate: 44.3 mg/L
[3]; listed as hesperidin
  Lactate: tended to moderate the recorded increase
[4]; 0 h (initial constant value)
  N-NH3 concentration: 149.99 mg/L
[4]; 12 h
  N-NH3 concentration: 187.36 mg/L
[4]
  N-NH3 concentration, average (M): 220.15 mg/L
Megasphaera elsdenii
  Relative Quantification 2^(ΔΔCt) M. elsdenii: 1.18 ^b
[5]; 0 h
  % Acetate, molar ratio: 62.51 mol/100 mol
  % Butyrate, molar ratio: 9.07 mol/100 mol
  % Propionate, molar ratio: 20.03 mol/100 mol
  A/P rate (acetate/propionate): 3.12
[5]; 0 h (initial constant value)
  VFA concentration: 13.78 mmol/L
[5]; 12 h
  % Acetate, molar ratio: 56.88 mol/100 mol
  % Butyrate, molar ratio: 10.41 mol/100 mol
  % Propionate, molar ratio: 27.22 mol/100 mol
  A/P rate (acetate/propionate): 2.09
  VFA concentration: 38.25 mmol/L
[5]; 72 h
  % Acetate, molar ratio: 56.04 mol/100 mol
  % Butyrate, molar ratio: 10.78 mol/100 mol
  % Propionate, molar ratio: 25.80 mol/100 mol
  A/P rate (acetate/propionate): 2.17
  VFA concentration: 53.70 mmol/L
[5]
  % Acetate, molar ratio, average (μ): 58.48 mol/100 mol
  % Butyrate, molar ratio, average (μ): 10.08 ^ab mol/100 mol
  % Propionate, molar ratio, average (M): 24.35 ^ab mol/100 mol
  VFA concentration, average (μ): 35.25 mmol/L
Selenomonas ruminantium
  Relative Quantification 2^(ΔΔCt) S. ruminantium: 0.74
[6]
  N-NH3 concentration: 323.11 mg/L
